Earlier results, collected in patent EP0116853A1, “Pyridazinones, processes for preparing them, therapeutical compositions containing these compounds and their use” (BASF Aktiengesellschaft, priority 1983, dated 1984).

Details: in contrast to the corresponding 4,5-dihydro compound

CC(=O)Nc1ccc(-c2n[nH]c(=O)cc2C)cc1 [6-(p-Acetylamino-phenyl)-5-methyl-3(2H)-pyridazinon]
blutdrucksenkende Wirkung: keine blutdrucksenkende Wirkung
